# In patent US10669271B2, “Heterocyclic compounds as immunomodulators” (Incyte Corporation, priority 2018, dated 2020):
# What was measured:
# [1] = tested on: U2OS/PD-L1 cells and Jurkat-PD-1-SHP cells; experiment: Src homology region 2 domain-containing phosphatase (SHP) assay; type: cell-based; conditions: Homo sapiens; U2OS/PD-L1 cells with Jurkat-PD-1-SHP cells, 2 hours
# Protocol: Example B. Src Homology Region 2 Domain-Containing Phosphatase (SHP) Assay
# U2OS/PD-L1 cells (DiscoveRx Corporation) were maintained in McCoy's 5A medium with addition of 10% FBS, 0.25 μg/ml Puromycin. After removing the culture media, the cell medium was replaced with assay medium (RPMI1640 medium with 1% FBS). The U2OS/PD-L1 cells were then added in 384-well black clear bottom assay plate (CELLCOAT® Tissue Culture Plates, Greiner Bio-One) at 5000 cells per well in 20 μL assay medium. Test compounds were prepared by serial dilution in DMSO and 125 nL compound were first transferred to the 384 REMP plate well (Thermofisher) by ECHO liquid handler (Labcyte) followed with addition of 27.5 μL assay medium. 5 μL/well compounds in the assay medium were transferred to the cell plate with 0.05% DMSO in the final assay at 0.5 μM. Jurkat-PD-1-SHP cells (DiscoveRx Corporation) were cultured in RPMI1640 medium supplemented with 10% FBS, 250 μg/ml Hygromycin B, 500 μg/ml G418. After the replacement of culture media with assay medium, 5,000 Jurkat-PD-1-SHP cells in 20 μL were dispensed into each well. The assay plate was incubated at 37° C., 5% CO2 for 2 hours before 2.5 μL PathHunter reagent 1 (DiscoveRx Corporation) were added to each well. The assay plate was shaken for 1 min at 350 rpm in the dark followed with addition of 10 μL PathHunter reagent 2 (DiscoveRx Corporation). Chemiluminescent signal was recorded with TopCount reader (Perkin Elmer) after incubation at room temperature for 1 hour. Wells with DMSO were served as the positive controls and wells containing no cells were used as negative controls. IC50 determination was performed by fitting the curve of percentage of control activity versus the log of the compound concentration using the GraphPad Prism 6.0 software.
# PD-1/PD-L1 = PD-1/PD-L1 (Homo sapiens (Human), UniProt Q9NZQ7); experiment: Homogeneous Time-Resolved Fluorescence (HTRF) PD-1/PD-L1 binding assay; conditions: recombinant human PD-1 and PD-L1, 25° C., pH 7.4
# Sequence of PD-1/PD-L1 (Q9NZQ7 19-238): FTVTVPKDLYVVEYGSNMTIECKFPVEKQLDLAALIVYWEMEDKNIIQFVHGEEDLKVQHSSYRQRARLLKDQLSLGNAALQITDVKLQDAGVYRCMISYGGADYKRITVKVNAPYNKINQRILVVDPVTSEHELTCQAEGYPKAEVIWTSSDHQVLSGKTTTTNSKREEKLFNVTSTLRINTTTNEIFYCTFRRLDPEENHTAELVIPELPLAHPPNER
# Protocol: Example A. Homogeneous Time-Resolved Fluorescence (HTRF) PD-1/PD-L1 Binding Assay
# The assays were conducted in a standard black 384-well polystyrene plate with a final volume of 20 μL. Inhibitors were first serially diluted in DMSO and then added to the plate wells before the addition of other reaction components. The final concentration of DMSO in the assay was 1%. The assays were carried out at 25° C. in the PBS buffer (pH 7.4) with 0.05% Tween-20 and 0.1% BSA. Recombinant human PD-L1 protein (19-238) with a His-tag at the C-terminus was purchased from AcroBiosystems (PD1-H5229). Recombinant human PD-1 protein (25-167) with Fc tag at the C-terminus was also purchased from AcroBiosystems (PD1-H5257). PD-L1 and PD-1 proteins were diluted in the assay buffer and 10 μL was added to the plate well. Plates were centrifuged and proteins were preincubated with inhibitors for 40 minutes. The incubation was followed by the addition of 10 μL of HTRF detection buffer supplemented with Europium cryptate-labeled anti-human IgG (PerkinElmer-AD0212) specific for Fc and anti-His antibody conjugated to SureLight®-Allophycocyanin (APC, PerkinElmer-AD0059H). After centrifugation, the plate was incubated at 25° C. for 60 min. before reading on a PHERAstar FS plate reader (665 nm/620 nm ratio). Final concentrations in the assay were—3 nM PD1,10 nM PD-L1, 1 nM europium anti-human IgG and 20 nM anti-His-Allophycocyanin. IC50 determination was performed by fitting the curve of percent control activity versus the log of the inhibitor concentration using the GraphPad Prism 5.0 software.
# PD-L1 = PD-L1 (Homo sapiens (Human), UniProt Q9NZQ7); experiment: PD-L1 whole blood internalization assay; type: cell-based; conditions: 1 ng/ml human interferon γ, PD-L1 expression on CD14+ cells, read-out: Whole Blood (24 HR) IC50
# Sequence of PD-L1 (Q9NZQ7 19-290): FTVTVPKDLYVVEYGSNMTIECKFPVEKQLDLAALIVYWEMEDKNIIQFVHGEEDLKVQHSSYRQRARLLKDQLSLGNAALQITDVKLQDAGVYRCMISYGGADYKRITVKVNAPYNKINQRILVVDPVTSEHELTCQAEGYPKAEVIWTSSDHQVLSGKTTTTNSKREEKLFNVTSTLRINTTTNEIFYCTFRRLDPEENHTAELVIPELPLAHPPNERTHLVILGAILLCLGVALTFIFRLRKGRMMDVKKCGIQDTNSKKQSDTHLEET
# Protocol: Example D. PD-L1 Whole Blood Internalization Assay
# To determine PD-L1 internalization in human whole blood, normal human blood (Biological Specialty Corp, Colmar. Pa.) was incubated in the presence or absence of a concentration range of test compounds and 1 ng/ml human interferon γ (R&D Systems Inc. Minn. […] Blood was then stained with PD-L1 (MIH1, eBioscience; or BD Biosciences San Jose, Calif.), CD14 (Life Technologies, Carlsbad, Calif.) for 30 minutes in the dark at room temperature. Whole Blood/red cells were lysed/fixed (lysis buffer BD Biosciences) for 5 minutes at 37° C. in the dark and then centrifuged at 1600 RPM for 5 minutes. Cells were resuspended in Stain Buffer (BD Bioscience, San Jose, Calif.) and transferred into 96 well round bottom plates (Corning). Cells were gated on CD14+(BD Biosciences) and PD-L1 expression determined by mean fluorescence intensity (MFI) (BD LSRFortessa™ X-20). IC50 determination was performed by fitting the curve of compound percent inhibition versus the log of the compound concentration using the GraphPad Prism 7.0 software.
# [2] = tested on: PD-L1 aAPC/CHO-K1 cells and Jurkat-PD-1-NFAT effector cells; experiment: Nuclear factor of activated T-cells (NFAT) assay; type: cell-based; conditions: Cricetulus griseus; PD-L1 aAPC/CHO-K1 cells with Jurkat-PD-1-NFAT effector cells, 24 hours
# Protocol: Example C. Nuclear Factor of Activated T-Cells (NFAT) Assay
# PD-L1 aAPC/CHO-Klcells (Promega) were maintained in F-12 medium with addition of 10% FBS, 200 μg/ml Hygromycin B, 250 μg/ml Geneticin (G418). Jurkat-PD-1-NFAT effector cells (Promega) were cultured in RPMI 1640 medium supplemented with 10% FBS, 100 μg/ml Hygromycin B, 500 μg/ml G418. The culture media of PD-L1 aAPC/CHO-K1 cells were first replaced with assay medium (RPMI1640 medium with 1% FBS). The PD-L1 aAPC/CHO-K1 cells were then added in a white 384-well white clear bottom assay plate (CELLCOAT® Tissue Culture Plates, Greiner Bio-One) at 8000 per well in 10 μL assay medium. Test compounds were prepared by serial dilution in DMSO and 0.8 μL test compounds in DMSO were first transferred to the 384 REMP plate well (Thermofisher) by PlateMate Plus (Thermofisher) followed with addition of 50 μL plating medium. 5 μL compounds in the assay medium were transferred to the cells with 0.4% DMSO in the final assay at 2 μM. After removing the culture media, 10,000 Jurkat-PD-1-NFAT effector cells in 5 μL assay medium was dispensed into each well. The assay plate was incubated at 37° C., 5% CO2 for 24 hours. After the assay plate was equilibrated to room temp for 15 minutes, 20 µL/well of Bio-Glo™ reagent (Promega) were added. After 8 minutes incubation at room temperature, luminescence was read at with Pherastar microplate reader (BMG Labtech). The fold of induction (FOI) was calculated based on the ratio of luminescence normalized to the DMSO wells within each assay plate. The maximum percentage of induction was reported based on the ratio between the highest FOI of each compound and the maximum FOI of control compound within each assay plate. Wells with DMSO were served as the negative controls and wells containing control compound with the highest FOI were used as positive controls. EC50 determination was performed by fitting the curve of percent control activity versus the log of the compound concentration using the GraphPad Prism 6.0 software.
IC50 [1],IC50 (PD-1/PD-L1),IC50 (PD-L1),SMILES,EC50 [2]
≤ 10 nM,≤ 10 nM,10 to 100 nM,"Cc1c(Nc2nc(C(F)F)nc3cc(CN4CC[C@@](C)(O)C4)cnc23)cccc1-c1cccc(-c2nc3cc(CN4CCC(C(=O)O)CC4)cc(C#N)c3o2)c1C [Example 30, (R)-1-((7-cyano-2-(3′-(2-(difluoromethyl)-7-((3-hydroxy-3-methylpyrrolidin-1-yl)methyl)pyrido[3,2-d]pyrimidin-4-ylamino)-2,2′-dimethylbiphenyl-3-yl)benzo[d]oxazol-5-yl)methyl)piperidine-4-carboxylic Acid]",≤ 10 nM
≤ 10 nM,≤ 10 nM,10 to 100 nM,"Cc1c(Nc2nc(C(F)F)nc3cc(CN4CC[C@@H](O)C4)cnc23)cccc1-c1cccc(-c2nc3cc(CN4CCC(C(=O)O)CC4)cc(C#N)c3o2)c1C [Example 16, (R)-1-((7-cyano-2-(3′-(2-(difluoromethyl)-7-((3-hydroxypyrrolidin-1-yl)methyl)pyrido[3,2-d]pyrimidin-4-ylamino)-2,2′-dimethylbiphenyl-3-yl)benzo[d]oxazol-5-yl)methyl)piperidine-4-carboxylic Acid]",≤ 10 nM
≤ 10 nM,≤ 10 nM,10 to 100 nM,"Cc1nc(Nc2cccc(-c3cccc(-c4nc5cc(CN6CC[C@@](C)(C(=O)O)C6)cc(C#N)c5o4)c3C)c2C)c2ncc(CN3CC[C@@](C)(O)C3)cc2n1 [Example 12, (R)-1-((7-cyano-2-(3′-(7-(((R)-3-hydroxy-3-methylpyrrolidin-1-yl)methyl)-2-methylpyrido[3,2-d]pyrimidin-4-ylamino)-2,2′-dimethylbiphenyl-3-yl)benzo[d]oxazol-5-yl)methyl)-3-methylpyrrolidine-3-carboxylic Acid]",10 to 100 nM
≤ 10 nM,≤ 10 nM,10 to 100 nM,"Cc1nc(Nc2cccc(-c3cccc(-c4nc5cc(CN6CC[C@@H](C(=O)O)C6)cc(C#N)c5o4)c3C)c2C)c2ncc(CN3CC[C@@H](O)C3)cc2n1 [Example 6, (R)-1-((7-cyano-2-(3′-(7-(((R)-3-hydroxypyrrolidin-1-yl)methyl)-2-methylpyrido[3,2-d]pyrimidin-4-ylamino)-2,2′-dimethylbiphenyl-3-yl)benzo[d]oxazol-5-yl)methyl)pyrrolidine-3-carboxylic Acid]",10 to 100 nM
≤ 10 nM,≤ 10 nM,10 to 100 nM,"Cc1nc(Nc2cccc(-c3cccc(-c4nc5cc(CN6CCC(C(=O)O)CC6)cc(C#N)c5o4)c3C)c2C)c2ncc(CN3CC[C@@](C)(O)C3)cc2n1 [Example 2, (R)-1-((7-cyano-2-(3′-(7-((3-hydroxy-3-methylpyrrolidin-1-yl)methyl)-2-methylpyrido[3,2-d]pyrimidin-4-ylamino)-2,2′-dimethylbiphenyl-3-yl)benzo[d]oxazol-5-yl)methyl)piperidine-4-carboxylic Acid]",10 to 100 nM
≤ 10 nM,≤ 10 nM,10 to 100 nM,"Cc1nc(Nc2cccc(-c3cccc(-c4nc5cc(CN6CCC(C(=O)O)CC6)cc(C#N)c5o4)c3C)c2C)c2ncc(CN[C@@H](C)CO)cc2n1 [Example 4, (S)-1-((7-cyano-2-(3′-(7-((1-hydroxypropan-2-ylamino)methyl)-2-methylpyrido[3,2-d]pyrimidin-4-ylamino)-2,2′-dimethylbiphenyl-3-yl)benzo[d]oxazol-5-yl)methyl)piperidine-4-carboxylic Acid]",10 to 100 nM
≤ 10 nM,≤ 10 nM,10 to 100 nM,"Cc1nc(Nc2cccc(-c3cccc(-c4nc5cc(CN6CC[C@@](C)(C(=O)O)C6)cc(C#N)c5o4)c3C)c2C)c2ncc(CN[C@@H](C)CO)cc2n1 [Example 14, (R)-1-((7-cyano-2-(3′-(7-(((S)-1-hydroxypropan-2-ylamino)methyl)-2-methylpyrido[3,2-d]pyrimidin-4-ylamino)-2,2′-dimethylbiphenyl-3-yl)benzo[d]oxazol-5-yl)methyl)-3-methylpyrrolidine-3-carboxylic Acid]",10 to 100 nM
10 to 100 nM,≤ 10 nM,100 to 500 nM,"Cc1nc(Nc2cccc(-c3cccc(-c4nc5cc(CN6CCC(C(=O)O)CC6)cc(C#N)c5o4)c3C)c2C)c2ncc(CNC[C@H](C)O)cc2n1 [Example 5, (S)-1-((7-cyano-2-(3′-(7-((2-hydroxypropylamino)methyl)-2-methylpyrido[3,2-d]pyrimidin-4-ylamino)-2,2′-dimethylbiphenyl-3-yl)benzo[d]oxazol-5-yl)methyl)piperidine-4-carboxylic Acid]",10 to 100 nM
≤ 10 nM,≤ 10 nM,10 to 100 nM,"Cc1c(Nc2nc(C(F)F)nc3cc(CN4CC[C@@H](O)C4)cnc23)cccc1-c1cccc(-c2nc3cc(CN4CC[C@@H](C(=O)O)C4)cc(C#N)c3o2)c1C [Example 17, (R)-1-((7-cyano-2-(3′-(2-(difluoromethyl)-7-(((R)-3-hydroxypyrrolidin-1-yl)methyl)pyrido[3,2-d]pyrimidin-4-ylamino)-2,2′-dimethylbiphenyl-3-yl)benzo[d]oxazol-5-yl)methyl)pyrrolidine-3-carboxylic Acid]",10 to 100 nM
